# ChEMBL document CHEMBL1201862, “PubChem BioAssay data set” (2004)
#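 Step 1: Grow cells in 96-well plates. Step 2: Expose to compound for 48 hours at 5 concentrations. Step 3: Interpolate endpoints linearly; if unreached, use highest concentration. GI50 marks 50% less growth.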 The source made the active and inactive calls. Cut-off read from the data, not from the text of the source: active = GI50 up to about 1.1 µM and inactive = higher.
# Legend:
# Experiment in all cases: NCI anticancer screen, dose series, 48 h
# [1] = test system: 786-0
# [2] = test system: A549
# [3] = test system: ACHN
# [4] = test system: BT-549
# [5] = test system: CAKI-1
# [6] = test system: CCRF-CEM
# [7] = test system: COLO 205
# [8] = test system: DU-145
# [9] = test system: EKVX
# [10] = test system: HCT-116
# [11] = test system: HCT-15
# [12] = test system: HOP-62
# [13] = test system: HOP-92
# [14] = test system: HT-29
# [15] = test system: Hs-578T
# [16] = test system: IGROV-1
# [17] = test system: K562
# [18] = test system: KM12
# [19] = test system: LOX IMVI
# [20] = test system: M14
# [21] = test system: MCF7
# [22] = test system: MDA-MB-231
# [23] = test system: MDA-MB-435
# [24] = test system: MOLT-4
# [25] = test system: Malme-3M
# [26] = test system: NCI-H226
# [27] = test system: NCI-H23
# [28] = test system: NCI-H460
# [29] = test system: NCI-H522
# [30] = test system: NCI/ADR-RES
# [31] = test system: OVCAR-3
# [32] = test system: OVCAR-4
# [33] = test system: OVCAR-5
# [34] = test system: OVCAR-8
# [35] = test system: PC-3
# [36] = test system: RPMI-8226
# [37] = test system: SF-268
# [38] = test system: SF-295
# [39] = test system: SF-539
# [40] = test system: SK-MEL-28
# [41] = test system: SK-MEL-2
# [42] = test system: SK-MEL-5
# [43] = test system: SK-OV-3
# [44] = test system: SN12C
# [45] = test system: SNB-19
# [46] = test system: SNB-75
# [47] = test system: SR
# [48] = test system: SW-620
# [49] = test system: T47D
# [50] = test system: TK-10
# [51] = test system: U-251
# [52] = test system: UACC-257
# [53] = test system: UACC-62
# [54] = test system: UO-31
# [55] = test system: HCC 2998
# [56] = test system: HL-60
# [57] = test system: MDA-N
# [58] = test system: RXF 393
smiles,measurement,setting,value
O=C(CCCN1CCC(O)(c2ccc(Cl)cc2)CC1)c1ccc(F)cc1 [HALOPERIDOL],GI50,[1],19.4 µM (inactive)
same,GI50,[2],42.8 µM (inactive)
same,GI50,[3],39.4 µM (inactive)
same,GI50,[4],31 µM (inactive)
same,GI50,[5],10.1 µM (inactive)
same,GI50,[6],41.4 µM (inactive)
same,GI50,[7],18.6 µM (inactive)
same,GI50,[8],85.1 µM (inactive)
same,GI50,[9],82.4 µM (inactive)
same,GI50,[10],15.1 µM (inactive)
same,GI50,[11],16.6 µM
same,GI50,[12],36.1 µM (inactive)
same,GI50,[13],48.2 µM (inactive)
same,GI50,[14],18.8 µM (inactive)
same,GI50,[15],25.4 µM (inactive)
same,GI50,[16],57.3 µM (inactive)
same,GI50,[17],> 100 µM (inactive)
same,GI50,[18],18.6 µM (inactive)
same,GI50,[19],18 µM (inactive)
same,GI50,[20],18.5 µM (inactive)
same,GI50,[21],37.9 µM (inactive)
same,GI50,[22],22 µM (inactive)
same,GI50,[23],17.5 µM (inactive)
same,GI50,[24],89.7 µM (inactive)
same,GI50,[25],19.6 µM (inactive)
same,GI50,[26],32.2 µM (inactive)
same,GI50,[27],31 µM (inactive)
same,GI50,[28],18.8 µM (inactive)
same,GI50,[29],20.6 µM (inactive)
same,GI50,[30],30.1 µM (inactive)
same,GI50,[31],18.3 µM (inactive)
same,GI50,[32],85.7 µM (inactive)
same,GI50,[33],28.8 µM (inactive)
same,GI50,[34],32.7 µM (inactive)
same,GI50,[35],70 µM (inactive)
same,GI50,[36],25.1 µM (inactive)
same,GI50,[37],48.2 µM (inactive)
same,GI50,[38],15.6 µM (inactive)
same,GI50,[39],26.1 µM (inactive)
same,GI50,[40],18 µM (inactive)
same,GI50,[41],20.7 µM (inactive)
same,GI50,[42],15.9 µM (inactive)
same,GI50,[43],34.9 µM (inactive)
same,GI50,[44],37.7 µM (inactive)
same,GI50,[45],> 100 µM (inactive)
same,GI50,[46],23.8 µM (inactive)
same,GI50,[47],48.1 µM (inactive)
same,GI50,[48],18.2 µM (inactive)
same,GI50,[49],37.5 µM (inactive)
same,GI50,[50],39.8 µM (inactive)
same,GI50,[51],20.7 µM (inactive)
same,GI50,[52],20.9 µM (inactive)
same,GI50,[53],2.31 µM (inactive)
same,GI50,[54],15.7 µM (inactive)
CC1(C)NC(C)(C)/C(=N\O)C(=NO)/C1=N/O,GI50,[1],> 100 µM (inactive)
same,GI50,[2],> 100 µM (inactive)
same,GI50,[3],> 100 µM (inactive)
same,GI50,[5],> 100 µM (inactive)
same,GI50,[6],> 100 µM (inactive)
same,GI50,[7],> 100 µM (inactive)
same,GI50,[8],> 100 µM (inactive)
same,GI50,[9],> 100 µM (inactive)
same,GI50,[55],> 100 µM (inactive)
same,GI50,[10],> 100 µM (inactive)
same,GI50,[11],> 100 µM
same,GI50,[56],> 100 µM (inactive)
same,GI50,[12],> 100 µM (inactive)
same,GI50,[13],> 100 µM (inactive)
same,GI50,[14],> 100 µM (inactive)
same,GI50,[15],> 100 µM (inactive)
same,GI50,[16],> 100 µM (inactive)
same,GI50,[17],> 100 µM (inactive)
same,GI50,[18],> 100 µM (inactive)
same,GI50,[19],> 100 µM (inactive)
same,GI50,[20],> 100 µM (inactive)
same,GI50,[21],> 100 µM (inactive)
same,GI50,[22],> 100 µM (inactive)
same,GI50,[23],> 100 µM (inactive)
same,GI50,[57],> 100 µM (inactive)
same,GI50,[24],> 100 µM (inactive)
same,GI50,[25],> 100 µM (inactive)
same,GI50,[26],> 100 µM (inactive)
same,GI50,[27],> 100 µM (inactive)
same,GI50,[28],> 100 µM (inactive)
same,GI50,[30],> 100 µM (inactive)
same,GI50,[31],> 100 µM (inactive)
same,GI50,[32],> 100 µM (inactive)
same,GI50,[33],> 100 µM (inactive)
same,GI50,[34],> 100 µM (inactive)
same,GI50,[35],> 100 µM (inactive)
same,GI50,[36],> 100 µM (inactive)
same,GI50,[58],> 100 µM (inactive)
same,GI50,[37],> 100 µM (inactive)
same,GI50,[38],> 100 µM (inactive)
same,GI50,[39],> 100 µM (inactive)
same,GI50,[40],> 100 µM (inactive)
same,GI50,[41],> 100 µM (inactive)
same,GI50,[42],> 100 µM (inactive)
same,GI50,[43],> 100 µM (inactive)
same,GI50,[44],> 100 µM (inactive)
same,GI50,[45],> 100 µM (inactive)
same,GI50,[46],> 100 µM (inactive)
same,GI50,[47],> 100 µM (inactive)
same,GI50,[48],> 100 µM (inactive)
same,GI50,[49],> 100 µM (inactive)
same,GI50,[50],> 100 µM (inactive)
same,GI50,[51],> 100 µM (inactive)
same,GI50,[52],> 100 µM (inactive)
same,GI50,[53],> 100 µM (inactive)
same,GI50,[54],> 100 µM (inactive)
